In patent publication US6344464B1, “Use of tetrahydropyridine derivatives to prepare medicines for treating diseases causing demyelination” (Sanofi-Synthelabo, priority 1997, dated 2002):
Structures can show the parent of a compound that is named as a salt.

Columns and labels:
[1] = system: experimental allergic encephalitis (EAE); assay: experimental allergic encephalitis (EAE) model induced by intraplantar myelin basic protein (fragment 68-84) in Freund's complete adjuvant; type: in vivo; conditions: EAE in Lewis rats, administered orally from day zero of induction
Text: The activity of the compounds of formula (I) was investigated in the model of experimental allergic encephalitis (EAE) induced in Lewis rats by the intraplantar administration of myelin basic protein (MBP) (fragment 68-84) in a Freund's complete adjuvant (FCA) enriched in Mycobacterium tuberculosis, according to the protocol published by Martin and Near (Journal of Neuroimmunology, 1995, 241-245).
EAE is an inflammatory autoimmune disease of the central nervous system which presents demyelinating lesions reminiscent of human multiple sclerosis.

Row | Structure (SMILES) | melting point | severity of the disease (paralysis of the back paws) [1] | weight loss of the treated animals ([1]; compared with animals treated with the vehicle only)
1 | FC(F)(F)c1cccc(C2=CCN(CC(c3ccccc3)c3ccccc3)CC2)c1 (as salt: hydrochloride) | 207 to 210 °C |  | 
2 | Cl.FC(F)(F)c1cccc(C2=CCN(CCc3ccc4ccccc4c3)CC2)c1 [1-(2-naphth-2-ylethyl)-4-(3-trifluoromethylphenyl)-1,2,3,6-tetrahydropyridine hydrochloride] |  | statistically less severe | significantly lower
3 | CCCCCc1ccc(CCN2CC=C(c3cccc(C(F)(F)F)c3)CC2)cc1C (as salt: oxalate) | 140 to 143 °C |  | 
